According to patent US20210369710A1, “MODULATORS OF MYC FAMILY PROTO-ONCOGENE PROTEIN” (Nalo Therapeutics, priority 2019, published 2021):

What was measured:
MycN Protein = molecular target: T1, MycN Protein (Homo sapiens, UniProt P04198); assay: Degradation of MycN protein, Western blot band density in cells; type: cell-based; settings: HL-60 or SKNBE2 cells; 6 uL of compound (1 mM) added to 3 mL cells; 6 hours; Western blot band density (ImageJ)
T1 construct: endogenous in cells; host or cells: HL-60 or SKNBE2
T1 sequence (P04198 1-464): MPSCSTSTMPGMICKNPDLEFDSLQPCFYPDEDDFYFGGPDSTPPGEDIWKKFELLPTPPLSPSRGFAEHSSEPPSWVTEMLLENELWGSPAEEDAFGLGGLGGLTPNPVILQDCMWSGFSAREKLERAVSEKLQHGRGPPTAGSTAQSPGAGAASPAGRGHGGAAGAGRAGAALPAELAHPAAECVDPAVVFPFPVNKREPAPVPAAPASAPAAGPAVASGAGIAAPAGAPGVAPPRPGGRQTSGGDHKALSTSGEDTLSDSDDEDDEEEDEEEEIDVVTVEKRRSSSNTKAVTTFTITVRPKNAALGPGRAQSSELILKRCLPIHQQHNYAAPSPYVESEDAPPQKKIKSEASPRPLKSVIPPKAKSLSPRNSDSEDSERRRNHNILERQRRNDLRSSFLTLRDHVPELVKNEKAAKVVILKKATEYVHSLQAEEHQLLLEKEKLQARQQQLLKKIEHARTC
Protocol: (§1) In a T150 flask was plated either 2×10^6 of HL-60 (human leukemia cell line) or SKNBE2 (neuroblastoma cell line) cells in a total of 30 mL containing Roswell Park Memorial Institute (RPMI) 1640 Medium (Thermo Fisher, Cat. #11875-085), 10% Fetal Bovine Serum (FBS, Thermo Fisher: Cat. #10437-028), 1% Penicillin/streptomycin (Thermo Fisher: Cat. #10378016), and 1% Amophotericin B (Thermo Fisher, Cat. #15290026). The cells were split every 72 hours by reseeding the HL-60 or SKNBE2 cells, and the passage number was noted. It is noteworthy that cell cultures that were above 40 passages were not used, and most experiments were done with cells of less than 30 passages.
(§2) In a 6-well cell culture plate, a total of 3 mL of either 1×10^6 cells/mL of HL-60 or SKNBE2 cells were seeded, resulting in a total of 3×10^6 cells per well. To each well containing 3 mL of either HL-60 or SKNBE2 cell line was added 6 uL of MycN modulating compound (1 mM) and the resulting plate was shaken from left to right, and not swirled. After 6 hours, the cells were placed in a 15 mL falcon tube and spun at 500 Gs at 4° C. in a swinging bucket centrifuge. The medium was then carefully removed without disturbing the pellet. The pellet was then washed with 3 mLs of chilled phosphate buffered saline (PBS) and subjected to the spin cycle. PBS was then removed and the pellet was lysed in 200 uL of radioimmunoprecipitation (RIPA) lysis buffer (Thermo Fisher: Cat. #899000) that is supplemented with protease and phosphatase inhibitors (Thermo Fisher: Cat. #A32959). The cell lysate was then subjected to spinning in a centrifuge for 10 minutes at 13000G at 4° C. The supernatant was then carefully transferred to a fresh eppendorf tube without disturbing the pellet (˜180 uL). The protein concentration of the cell lysate was then determined by using a bicinchoninic acid (BCA assay) according to manufacturer's protocol (Thermo Fisher: Cat. #23227).
(§3) Cell lysate, approximately 25 ug-30 ug, was loaded per well in a 4-20% polyacrylamide gel (Biorad. Cat. #5671094). After running the dye front off of the gel, the gel was transferred to a nitrocellulose membrane (Biorad: Cat. #1704159) using the transblot turbo system (Biorad: Cat. #1704150) according to manufacturer's protocol. After transferring for 30 minutes, the membrane was blocked with 5% BSA for 1 hour at room temperature. The BSA was then washed off and the primary antibody of choice (1:500) was added, and the membrane was incubated with the primary antibody at 4° C. for overnight. The next morning, the primary antibody was removed and the membrane was washed with 1×-TBST for 10 minutes and repeated three more times. Following the last wash, a secondary antibody (Molecular Devices. Cat. #R8209 or R8208) was added at 1:5000 dilution and incubated for 1 hour at room temperature. Following the incubation with the secondary antibody, the membrane was washed with 1×-TBST for 10 minutes and repeated three more times. Following the last wash, the membrane was washed with de-ionized water twice and dried for at least two hours. Once the membrane is completely dry, the Molecular Devices Spectra Max western system was used to observe the bands. The western image was saved and the band density was measured with ImageJ software.

MycC Protein = molecular target: T2, MycC Protein (Homo sapiens, UniProt P01106); assay: Degradation of MycC protein, Western blot band density in cells; type: cell-based; settings: HL-60 or SKNBE2 cells; 6 uL of compound (1 mM) added to 3 mL cells; 6 hours; Western blot band density (ImageJ)
T2 construct: endogenous in cells; host or cells: HL-60 or SKNBE2
T2 sequence (P01106 whole entry): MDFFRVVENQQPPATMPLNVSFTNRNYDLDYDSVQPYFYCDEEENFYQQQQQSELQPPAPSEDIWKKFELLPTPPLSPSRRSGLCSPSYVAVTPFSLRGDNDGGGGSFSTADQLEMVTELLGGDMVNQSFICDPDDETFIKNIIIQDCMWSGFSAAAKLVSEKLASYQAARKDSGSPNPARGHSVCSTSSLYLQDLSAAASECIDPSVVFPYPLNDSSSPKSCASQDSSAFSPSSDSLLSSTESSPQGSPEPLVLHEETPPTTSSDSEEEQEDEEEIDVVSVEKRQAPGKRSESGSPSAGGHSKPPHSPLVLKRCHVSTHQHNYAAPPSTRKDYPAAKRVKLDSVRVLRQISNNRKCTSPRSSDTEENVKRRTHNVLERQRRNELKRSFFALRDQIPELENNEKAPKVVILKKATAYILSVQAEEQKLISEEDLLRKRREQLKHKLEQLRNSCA
Protocol: as §1, §2, §3

SMILES | % Degradation of MycN (MycN Protein) | % Degradation of MycC (MycC Protein) | Dmax at 2 µM (MycN Protein) | Dmax at 2 µM (MycC Protein)
N#Cc1ccc2c(c1)CC(NC(=O)N[C@H]1CC[C@H](Nc3nccc(Nc4cc(C5CCCC5)[nH]n4)n3)CC1)C2 (stereo partly drawn) [Compound 11 (Fraction 1), 1-(5-cyano-2,3-dihydro-1H-inden-2-yl)-3-((1R,4R)-4-((4-((5-cyclopentyl-1H-pyrazol-3-yl)amino)pyrimidin-2-yl)amino)cyclohexyl)urea] | ** (**: degradation 20-49%) | **** (****: degradation 80-100%) | – | –
O=C(NC1CCN(C2COC2)CC1)N[C@H]1CC[C@H](Nc2nccc(Nc3cc(C4CCCC4)[nH]n3)n2)CC1 [Compound 12, 1-((1R,4R)-4-((4-((5-cyclopentyl-1H-pyrazol-3-yl)amino)pyrimidin-2-yl)amino)cyclohexyl)-3-(1-(oxetan-3-yl)piperidin-4-yl)urea] | – | – | < 20% | < 20%
FC(F)(F)C/N=C(\NC1CCOCC1)N[C@H]1CC[C@H](Nc2nccc(Nc3cc(C4CCCC4)[nH]n3)n2)CC1 [Compound 84] | – | – | < 20% | < 20%
CN(c1nccc(Nc2cc(C3CCCC3)[nH]n2)n1)C1CCC(NC(=O)N[C@H]2CCC[C@@H](C(F)(F)F)C2)CC1 (mixture of isomers) [Compound 121 (Racemic), 1-((1R,4S)-4-((4-((5-cyclopentyl-1H-pyrazol-3-yl)amino)pyrimidin-2-yl)(methyl)amino)cyclohexyl)-3-((1S,3R)-3-(trifluoromethyl)cyclohexyl)urea] | *** (***: degradation 50-79%) | *** (***: degradation 50-79%) | – | –
Cc1cc(Nc2ccnc(N[C@H]3CC[C@H](NC(=O)NC4CCN(Cc5ccccn5)CC4)CC3)n2)n[nH]1 [Compound 73, 1-((1R,4R)-4-((4-((5-methyl-1H-pyrazol-3-yl)amino)pyrimidin-2-yl)amino)cyclohexyl)-3-(1-(pyridin-2-ylmethyl)piperidin-4-yl)urea] | – | – | < 20% | < 20%
O=C(Nc1cccc(C(F)(F)F)c1)N[C@H]1CC[C@@H](Nc2nccc(Nc3cc(C4CCCC4)[nH]n3)n2)CC1 [Compound 40, 1-((1S,4S)-4-((4-((5-cyclopentyl-1H-pyrazol-3-yl)amino)pyrimidin-2-yl)amino)cyclohexyl)-3-(3-(trifluoromethyl)phenyl)urea] | – | – | 50 to 79% | 50 to 79%
CN(c1nccc(Nc2cc(C3CC(F)(F)C3)[nH]n2)n1)[C@H]1CC[C@H](NC(=O)NC2Cc3ccc(C#N)cc3C2)CC1 (stereo partly drawn) [Compound 145, 1-(5-cyano-2,3-dihydro-1H-inden-2-yl)-3-((1R,4R)-4-((4-((5-(3,3-difluorocyclobutyl)-1H-pyrazol-3-yl)amino)pyrimidin-2-yl)(methyl)amino)cyclohexyl)urea] | – | – | 80 to 100% | 50 to 79%
Cc1cc(Nc2ccnc(N[C@H]3CC[C@H](NC(=O)N[C@@H]4CCC[C@H](C(F)(F)F)C4)CC3)n2)n[nH]1 [Compound 104, 1-((1R,4R)-4-((4-((5-methyl-1H-pyrazol-3-yl)amino)pyrimidin-2-yl)amino)cyclohexyl)-3-((1R,3S)-3-(trifluoromethyl)cyclohexyl)urea] | – | – | 20 to 49% | < 20%
O=C(Nc1cccc(C(F)(F)F)c1)N[C@H]1CC[C@H](Nc2nccc(Nc3cc(C4CCCC4)[nH]n3)n2)CC1 [Compound 39, 1-((1R,4R)-4-((4-((5-cyclopentyl-1H-pyrazol-3-yl)amino)pyrimidin-2-yl)amino)cyclohexyl)-3-(3-(trifluoromethyl)phenyl)urea] | – | – | 50 to 79% | 20 to 49%
O=C(N[C@H]1CC[C@H](Nc2nccc(Nc3cc(C4CCCC4)[nH]n3)n2)CC1)N[C@H]1C[C@H](c2ccccc2)C1 [Compound 52, 1-((1R,4R)-4-((4-((5-cyclopentyl-1H-pyrazol-3-yl)amino)pyrimidin-2-yl)amino)cyclohexyl)-3-(3-phenylcyclobutyl)urea] | – | – | 80 to 100% | 80 to 100%
CN(c1nccc(Nc2cc(C3CC3)[nH]n2)n1)[C@H]1CC[C@H](NC(=O)NC2Cc3ccc(C#N)cc3C2)CC1 (stereo partly drawn) [Compound 142, 1-(5-cyano-2,3-dihydro-1H-inden-2-yl)-3-((1R,4R)-4-((4-((5-cyclopropyl-1H-pyrazol-3-yl)amino)pyrimidin-2-yl)(methyl)amino)cyclohexyl)urea] | – | – | 80 to 100% | 80 to 100%
N#Cc1ccc2c(c1)CC(NC(=O)N[C@H]1CC[C@H](Nc3nccc(Nc4cc(C5CC5)[nH]n4)n3)CC1)C2 (stereo partly drawn) [Compound 21, 1-(5-cyano-2,3-dihydro-1H-inden-2-yl)-3-((1R,4R)-4-((4-((5-cyclopropyl-1H-pyrazol-3-yl)amino)pyrimidin-2-yl)amino)cyclohexyl)urea] | – | – | 20 to 49% | < 20%
CN(c1nccc(Nc2cc(C3CCCC3)[nH]n2)n1)C1CCC(NC(=O)NC2Cc3ccc(C#N)cc3C2)CC1 (racemic) [Compound 16 (Racemic), 1-(5-cyano-2,3-dihydro-1H-inden-2-yl)-3-((1R,4R)-4-((4-((5-cyclopentyl-1H-pyrazol-3-yl)amino)pyrimidin-2-yl)(methyl)amino)cyclohexyl)urea] | **** (****: degradation 80-100%) | **** (****: degradation 80-100%) | – | –
CC(=O)N1CC(NC(=O)N[C@H]2CC[C@H](Nc3nccc(Nc4cc(C5CCCC5)[nH]n4)n3)CC2)C1 [Compound 48, 1-(1-acetylazetidin-3-yl)-3-((1R,4R)-4-((4-((5-cyclopentyl-1H-pyrazol-3-yl)amino)pyrimidin-2-yl)amino)cyclohexyl)urea] | – | – | < 20% | 20 to 49%
CC(NC(=O)N[C@H]1CC[C@H](Nc2nccc(Nc3cc(C4CCCC4)[nH]n3)n2)CC1)c1ccccn1 (some centres unmarked) [Compound 4] | – | – | 20 to 49% | 80 to 100%
Cc1cc(Nc2ccnc(N[C@H]3CC[C@H](NC(=O)NC4Cc5ccc(S(C)(=O)=O)cc5C4)CC3)n2)n[nH]1 (some centres unmarked) [Compound 115] | – | – | < 20% | < 20%
N#Cc1ccc2c(c1)CC(NC(=O)N[C@H]1CC[C@H](Nc3nccc(Nc4cc(C5CCOC5)[nH]n4)n3)CC1)C2 (stereo partly drawn) [Compound 5, 1-(5-cyano-2,3-dihydro-1H-indene-2-yl)-3-((1R,4R)-4-((4-((5-(tetrahydrofuran-3-yl)-1H-pyrazol-3-yl)amino)pyrimidine-2-yl)amino)cyclohexyl)urea] | – | – | 20 to 49% | < 20%
CN(c1nccc(Nc2cc(C3CCCC3)[nH]n2)n1)C1CCC(NC(=O)NC2Cc3ccc(C#N)cc3C2)CC1 [Compound 16 (Fraction 2), 1-(5-cyano-2,3-dihydro-1H-inden-2-yl)-3-((1R,4R)-4-((4-((5-cyclopentyl-1H-pyrazol-3-yl)amino)pyrimidin-2-yl)(methyl)amino)cyclohexyl)urea] | *** (***: degradation 50-79%) | **** (****: degradation 80-100%) | – | –
C/N=C(\Nc1cccc(C(F)(F)F)c1)N[C@H]1CC[C@H](Nc2nccc(Nc3cc(C)[nH]n3)n2)CC1 [Compound 112] | – | – | < 20% | < 20%
